These results are taken from patent publication US20070015827A1, “Methods and compositions for treating ophthalmic conditions via serum retinol, serum retinol binding protein (RBP), and/or serum retinol-RBP modulation” (Sytera, Inc., priority 2005, published 2007).

Assay [1] relates to abca4 null mutant mice. The experiment in a line: A2E and A2PE-H2 in eyes after chronic treatment (HPLC). In kind it is in vivo, mouse. The method, then: Tissue Extraction. Eye samples were thawed on ice in 1 ml of PBS, pH 7.2 and homogenized by hand using a Duall glass-glass homogenizer. The sample was further homogenized following the addition of 1 ml chlorofomm/methanol (2:1, v/v). The sample was transferred to a boroscilicate tube and lipids were extracted into 4 mls of chloroform. The organic extract was washed with 3 mls PBS, pH 7.2 and the samples were then centrifuged at 3,000×g, 10 min. The choloroform phase was decanted and the aqueous phase was re-extracted with another 4 mls of chloroform. Following centrifugation, the chloroform phases were combined and the samples were taken to dryness under nitrogen gas. Samples residues were resuspended in 100 μl hexane and analyzed by HPLC as described below.
HPLC Analysis. Chromatographic separations were achieved on an Agilent Zorbax Rx-Sil Column (5 μm, 4.6×250 mm) using an Agilent 1100 series liquid chromatograph equipped with fluorescence and diode array detectors. The mobile phase (hexane/2-propanol/ethanol/25 mM KH2PO4, pH 7.0/acetic acid; 485/376/100/50/0.275, v/v) was delivered at 1 ml/min. Sample peak identification was made by comparison to retention time and absorbance spectra of authentic standards. Data are reported as peak fluorescence (L.U.) obtained from the fluorescence detector.
We initiated a one-month study to evaluate the effects of HPR on reduction of A2E and A2E precursors in abca4 null mutant mice. HPR was administered in DMSO (20 mg/kg, ip) to abca4 null mutant mice (BL6/129, aged 2 months) daily for a period of 28 days. Control age/strain matched mice received only the DMSO vehicle. Mice were sampled at 0, 14, and 28 days (n=3 per group), the eyes were enucleated and chloroform-soluble constituents (lipids, retinoids and lipid-retinoid conjugates) were extracted. Mice were sacrificed by cervical dislocation, the eyes were enucleated and individually snap frozen in cryo vials. The sample extracts were then analyzed by HPLC with on-line fluorescence detection. Results from this study show remarkable, early reductions in the A2E precursor, A2PE-H2, see FIG. 4a, and subsequent reductions in A2E, see FIG. 4b. […] A similar study may be undertaken to ascertain effects of HPR treatment on the electroretinographic and morphological phenotypes.
ABCA4 null mutant mice were given the indicated dose of HPR in DMSO or DMSO alone daily for 28 days (n=16 mice per treatment group). At study onset, mice in the 2.5 mg/kg group were 2 months of age, mice in the other treatment groups were 3 months of age. At the indicated times, representative mice were taken from each group (n =4) for analysis of A2E precursor compounds (see FIG. 10, A2PE-H2, panels A, C and E) and A2E (see FIG. 10, panels B, D and F). Eyes were enucleated, hemisected and lipid soluble components were extracted from the posterior pole by chloroform/methanol-water phase partitioning. Sample extracts were analyzed by LC. Identity of the eluted compounds was confirmed by UV-vis absorption spectroscopy and co-elution of sample peaks with authentic standards. Note: limitations in appropriately age and strain-matched mice in the 10 mg/kg group prevented analysis at the 14-day interval.
Extraction and Analysis of Retinoids and A2E. Steady-state levels of retinoids and A2E in eyecups of ABCA4−/− mice were determined following daily administration (28 days) of HPR (FIG. 12). Mice were sacrificed, the eyes enucleated, and the posterior portion of each eye was used for extraction of retinoids or A2E. Methodologies used for extraction of retinoids and A2E from eye tissue and HPLC analysis techniques have been described. See, e.g., Mata N L, Weng J, Travis G H. Biosynthesis of a major lipofuscin fluorophore in mice and humans with ABCR-mediated retinal and macular degeneration. Proc Natl Acad Sci USA. 2000; 97:7154-7159; Weng J, et al.; Cell. 1999;98:13-23; Mata N L, et al.; Invest. Ophthalmol. Visual Sci. 2001; 42:1685-1690. […]

In assay [2] the target is RBP (Homo sapiens, UniProt P02753). The assay can be described thus: Competition binding assay RBP-retinol/HPR by fluorescence quenching. From the text:
Based upon these findings, we sought to further explore the mechanism(s) of retinol reduction during HPR treatment. A tenable hypothesis is that HPR may displace retinol by competing at the retinol binding site on RBP. […] Therefore, one can measure displacement of retinol from the RBP holoprotein by observing decreases in both protein (340 nm) and retinol (470 nm) fluorescence. We performed a competition binding assay using RBP-retinol/HPR concentrations which were similar to those determined from the 14 day trial at 20 mg/kg HPR described above. […] In the control assays, decreases in retinol fluorescence were associated with concomitant increases in protein fluorescence, see FIG. 3a. This effect was determined to be due to temperature effects as the dissociation constant of RBP-retinol increases (decreased affinity) with […] at 37C. […] Increases of HPR beyond equimolar amounts relative to RBP holoprotein (e.g., 2.0 μM HPR to 1.0 μM RBP) will produce a population of RBP which is largely associated with HPR.

On to `CC1=C(/C=C/C(C)=C/C=C/C(C)=C/C(=O)Nc2ccc(O)cc2)C(C)(C)CCC1` [HPR, N-(4-hydroxyphenyl)retinamide], for which the “reduction in A2PE-H2” value in assay [1] (HPR 2.5 mg/kg daily, 28 days, 2-month old mice) is roughly 47%. Also, the “less A2E accumulated compared to DMSO littermates” value in assay [1] (HPR 10 mg/kg daily, 28 days) is given as roughly 50%. In assay [1] (HPR 20 mg/kg ip daily, 28 days), the “reduction of A2E” value amounted to 55% and the “reduction of A2PE-H2” value is on record as 70%. In assay [1] (mouse, in vivo), the “accumulation of A2E and lipofuscin autofluorescence in the RPE (in words)” value is reported as “arrested accumulation”. Moreover, in assay [2], the “competitive binding of HPR to RBP” value was “dose-dependent and saturable”. Also, the “displacement of retinol from RBP-retinol holoprotein” value in assay [2] (physiological temperature (37C), protein (340 nm) and retinol (470 nm) fluorescence) is “efficiently displaces retinol”.
